# From patent US20210213081A1, “COMPOSITION FOR PREVENTING, AMELIOREATING, OR TREATING STRESS OR DEPRESSION COMPRISING MEDICINAL HERB EXTRACT AS EFFECTIVE INGREDIENT” (KOREA INSTITUTE OF ORIENTAL MEDICINE, priority 2016, published 2021)
# What was measured:
# serotonin = experiment: Blood serotonin measurement after immobility stress (competitive enzyme immunoassay); type: in vivo; conditions: mouse blood serum, immobility stress 22 days, 20 mg/kg oral daily, FIG. 8
# Description: (§1) As a test animal, 7-week old male C57BL/6 mouse was used after obtaining it from Samtako Bio Korea. The test animals were acclimated for 7 days in the test animal research center, which is a specific pathogen-free facility of Korea Institute of Oriental Medicine. They were divided into the followings 6 groups in total: normal group not exposed to any stress (Control, n=16), stress control group applied with the stress only (Vehicle, n=16), positive control group applied with the stress and commercially available anti-depressant (Fluoxetine, n=16), and test groups applied with the stress and extract of Hibiscus syriacus root (100, 200, or 400 mg/kg, n=16). […]
# Upon the completion of the test, the test animal was anesthetized, and blood was collected from the heart and centrifuged (1,000×g, 15 minutes) to obtain blood serum. […] After adding the stop solution (50 μl), the absorbance at 405 nm was measured by using Micro Spectrophotometer (Molecular Device, Sunnyvale, Calif., USA).
# cortisol = experiment: Blood cortisol measurement after immobility stress (competitive enzyme immunoassay); type: in vivo; conditions: mouse blood serum, immobility stress 22 days, 20 mg/kg oral daily, FIG. 7
# Description: as §1
# Upon the completion of the test, the test animal was anesthetized, and blood was collected from the heart and centrifuged (1,000×g, 15 minutes) to obtain blood serum. […] Then, the absorbance at 405 nm was measured by using Micro Spectrophotometer (Molecular Device, Sunnyvale, Calif., USA).
# C57BL/6 mouse [1] = experiment: Sucrose preference test (SPT) in immobility stress model; type: in vivo; conditions: immobility stress 22 days, 20 mg/kg oral daily, FIG. 4
# Description: as §1, with “n=16). The test methods were reviewed by Test animal ethics committee of Korea Institute of Oriental Medicine (approval number: 15-102), and as for the breeding and maintenance of the test animals, the animals were placed in an IVC (individually ventilated cage) (5 animals per cage), which has been constantly maintained at temperature of 23±1° C., humidity of 50±10% or so, and light/dark period of 12 hours, based on the regulations for management and use of animals by the Test Animal Research Center of Korea Institute of Oriental Medicine.” for “n=16).”
# The sucrose preference test was carried out on Day 1 of the test and after completion of the test. […] The intake preference was calculated as follows.
# C57BL/6 mouse [2] = experiment: Tail suspension test (TST) in immobility stress model; type: in vivo; conditions: immobility stress 22 days, 20 mg/kg oral daily, FIG. 6
# Description: as §1
# The method by Can and others was used for the tail suspension test. […] Of total 6 minutes, the measurement was not carried out for initial 2 minutes as an acclimation period, while the immobile time of the test animal was measured for the last 4 minutes. […]
# C57BL/6 mouse [3] = experiment: Forced swimming test (FST) in immobility stress model; type: in vivo; conditions: immobility stress 22 days, 20 mg/kg oral daily, FIG. 5
# Description: as §1
# To measure the anti-depression effect of an extract of Hibiscus syriacus root, the forced swimming test was carried out, after the completion of the immobility stress test, by using the method of Porsolt, et. al. ([…]). […] Of total 6 minutes, the measurement was not carried out for initial 2 minutes as an acclimation period, while the immobile time of the test animal was measured for the last 4 minutes. […]
# SK-N-SH cells = experiment: Activity of protecting nerve cells against corticosterone toxicity, MTS assay (cell proliferation); type: cell-based, human; conditions: 0.25 mM corticosterone for 1 hour, versus normal group
# Method: SK-N-SH cells as human neuroblastoma cell line were obtained from Korean Cell Line Bank, cultured in DMEM (Dulbecco's modified Eagle's medium) medium containing 10% bovine serum and 1% penicillin/streptomycin (37° C., 5% CO2 incubator), and used. Once a cell monolayer is formed, the cells were treated with TrypLE 1× solution to release the cells followed by subculture.
# Furthermore, based on the toxicity of corticosterone, the activity of protecting nerve cells in human blastoma was examined. Specifically, on a Corning BioCoat collagen I 96-well plate, SK-N-SH cells were sewn at 3×10^4/well. Thereafter, the cells were pre-treated for 24 hours with an extract of Hibiscus syriacus flower or Hibiscus syriacus root at a concentration of 10, 50, 100, or 200 μg/ml followed by a treatment with 0.25 mM corticosterone for 1 hour to induce oxidative stress. Then, MTS assay was carried out and, by measuring the absorbance using ELISA (enzyme-linked immunosorbent assay) plate reader, the cell proliferation was determined.
# As a positive control, a treatment with 10 μM fluoxetine (Sigma, St. Louis, Mo., USA) was carried out instead of the treatment with an extract of Hibiscus syriacus flower or Hibiscus syriacus root.
Compound,serotonin production in blood compared to control group (Vehicle) (serotonin),cortisol production in blood compared to control group (Vehicle) (cortisol),sucrose intake amount compared to stress control group (Vehicle) (C57BL/6 mouse [1]),immobile time in tail suspension test compared to control group (Vehicle) (C57BL/6 mouse [2]),immobile time in forced swimming test compared to control group (Vehicle) (C57BL/6 mouse [3]),cells diminished by treatment with corticosterone (SK-N-SH cells) [%]
"CNCCC(Oc1ccc(C(F)(F)F)cc1)c1ccccc1 (stereo not drawn) [Fluoxetine, fluoxetine]",increased in significant sense,decreased in significant sense,increased in significant sense,decreased,decreased in significant sense,
C[C@]12C[C@H](O)[C@H]3[C@@H](CCC4=CC(=O)CC[C@@]43C)[C@@H]1CC[C@@H]2C(=O)CO [corticosterone],,,,,,~50
